“Also recorded” adds a separate entry of the source. Structures can show the parent of a compound that is named as a salt.
Legend:
Assay type in all cases: cell-based
Human ARPE-19 cells [1] = assay: UV-B radiation damage in ARPE-19; details: then 1200 mJ/cm^2 UV-B
Protocol: Human ARPE-19 cells were plated in 96-well plates for 24 hours in DMEM supplemented with FBS and antibiotics. ARPE-19 cells were preincubated with compound or no compound for 24 hours and then exposed to 1200 mJ/cm^2 ultraviolet B (UV-B) radiation in a chamber. Cell viability was measured the following day by […] MT cell viability assay (Promega) using a BioTek FLx800™ fluorescence reader (BioTek, Winooski, VT).
Human ARPE-19 cells were then preincubated with 3 μM of ciclopirox olamine for 24 hours and then exposed to 1200 mJ/cm^2 of UV-B radiation. Ciclopirox olamine protects human ARPE-19 cells exposed to 1200 mJ/cm^2 UV-B radiation (FIG. 6).
To confirm the results using TBHP, another model of oxidative stress in which human RPE cells are exposed to UV-B light was employed. […] Human ARPE-19 cells were then preincubated with 0.6 μM of compound 414 and compound 434 for 24 hours and then exposed to 1200 mJ/cm^2 of UV-B radiation. Compound 414 and compound 434 protective human ARPE-19 cells exposed to 1200 mJ/cm^2 UV-B radiation (FIG. 11).

Human ARPE-19 cells [2] = assay: Mitochondrial respiration (Seahorse XF, oxygen consumption rate) after TBHP in ARPE-19
Protocol: (§1) Analysis of mitochondrial function was performed on live cells using XFe96 Extracellular Flux Analyzer (Seahorse Bioscience) using the cell mito stress test (CMST). Human ARPE-19 cells or iPSC-derived RPE were seeded in a 96 well plate and grown for 24 h. Cells were preincubated with compound or no compound for 24 hours and then exposed to varying concentrations of TBHP the next day for 24 hours. Cells were the washed with CMST assay medium (XF base medium DMEM supplemented with 2 mM glutamine, 5.5 mM glucose, and 1 mM sodium pyruvate, pH 7.4), and then incubated in CMST medium for 1 h at 37° C. in a non-CO2 incubator. The CMST assay protocol was performed by manufacturer guidance (Seahorse Bioscience). Oxygen consumption rate (OCR) was detected under basal conditions followed by the sequential addition of oligomycin, carbonyl cyanide 4-(trifluoromethoxy) phenylhydrazone (FCCP), as well as rotenone and antimycin A. The measured parameters include: basal respiration, adenosine triphosphate (ATP) production, maximal respiration, spare respiratory capacity.
Human ARPE-19 cells were preincubated with 3 μM ciclopirox olamine for 18 hours, then treated with 500 μM TBHP for 24 hours and oxygen consumption rate determined using the Seahorse XF analyzer.
The effects of compound treatment on mitochondrial function in human RPE cells were investigated. Human ARPE-19 cells were preincubated with 0.6 μM of compound 414 or compound 434 for 18 hours, then treated with 300 μM TBHP for 24 hours and oxygen consumption rate determined using the Seahorse XF analyzer.

Human ARPE-19 cells [3] = assay: TBHP-induced oxidative stress cell viability assay (RealTime-Glo) in ARPE-19; details: for protection from oxidative stress-induced cell death: 0.9 μM 24 h preincubation, 400 μM TBHP 24 h; for protection from TBHP-induced cell death in screen of 65,000 compound Chemical Diversity library: initial high-throughput screening
Protocol: Immortalized human RPE cells (ARPE-19) obtained from the American Type Culture Collection (ATCC, Manassas, VA, USA) were cultured in Dulbecco's modified Eagle's medium (DMEM; Thermo Fisher Scientific, Waltham, MA) containing 10% fetal bovine serum (FBS), 100 IU/mL penicillin, 100 μg/mL streptomycin, 100 μg/mL gentamicin, and 2.5 μg/mL amphotericin B (Thermo Fisher Scientific).
Human ARPE-19 cells were plated in 96-well plates for 24 hours in DMEM supplemented with FBS and antibiotics. ARPE-19 cells were preincubated with either ciclopirox olamine (Sigma), compound 414 (Chemical Diversity, San Diego, CA), compound 434 (Chemical Diversity) or no compound for 24 hours and then exposed to varying concentrations of tert-butyl hydroperoxide (TBHP; Sigma-Aldrich, St. Louis, MO) the next day for 24 hours. Cell viability was measured the following day by RealTime-Glo™ MT cell viability assay (Promega, Madison, WI) using a BioTek FLx800™ fluorescence reader (BioTek, Winooski, VT).
Initial screening of a library with 640 FDA-approved drugs (Enzo Life Sciences FDA-approved drug library) with known bioactivity, safety & bioavailability, and natural products was performed using TBHP, a chemical oxidizing agent, as a model of oxidative stress-induced cell death.
Initial screening of a library with 65,000 synthetic compounds (Chemical Diversity library) using tert-butyl hydroperoxide (TBHP), a chemical oxidizing agent, as a model of oxidative stress-induced cell death.

[4] = tested on: Human iPSC-derived RPE cells; assay: Mitochondrial respiration (Seahorse XF) after TBHP in iPSC-derived RPE
Protocol: Human iPSC-derived RPE cells were preincubated with 3 μM ciclopirox olamine for 18 hours, then treated with 500 μM tert-butyl hydroperoxide (TBHP) for 24 hours. Oxygen consumption rate was determined using the Seahorse XF analyzer to measure mitochondrial function. FIG. 7A depicts basal respiration. FIG. 7B depicts maximal oxygen consumption rate (OCR). FIG. 7C depicts spare respiratory capacity. FIG. 7D depicts ATP production.
Human iPSCs were derived from fibroblasts of a donor with no history of retinal disease. A skin specimen was processed as previously described. Briefly, the skin biopsy was transplanted onto a culture plate and fibroblasts were grown to confluence and then treated with four Yamanaka factors, Oct3/4, Sox-2, Klf4, and c-Myc using the CytoTune™-iPS 2.0 Sendai Reprogramming Kit according to the manufacturer's instructions (Invitrogen-Gibco, Life Technologies=) (31-36). Newly generated iPSC colonies were purified and expanded using MTeSR1™ media (Stem Cell Technologies, Vancouver, Canada).
Human iPSCs were differentiated to iPSC-derived RPE cells as previously described. Human iPSC colonies were lifted and grown as embryoid bodies (EBs) for 4 days in EB formation medium (STEMCELL Technologies). After 5 days, EB medium was replaced with neural induction medium (NIM) containing DMEM/F12 (1:1), 1% N-2 supplement (MEM non-essential amino acids and 2 μg/mL heparin) and suspended EB aggregates were plated onto laminin-coated culture plates and allowed to reattach. After 16 days, neural induction medium was replaced with retinal differentiation medium (RDM) containing DMEM/F12 (3:1), 2% B-27 supplement (Invitrogen-Gibco, Life Technologies), MEM non-essential amino acids and penicillin/streptomycin. The adherent culture was maintained in RDM until the appearance of pigmented iPSC-derived RPE cells. Patches of pigmented iPSC-derived RPE cells were then micro-dissected and cultured on Transwell® plates with RDM+10% fetal bovine serum (FBS) for 2 days and then switched to RDM with 2% FBS until the cells were confluent. Human iPSC-derived RPE cells were then maintained in RDM and allowed to form monolayers within 90 days.
as §1
Human iPSC-derived RPE cells were preincubated with 0.6 μM of compound 414 or compound 434 for 18 hours, then treated with 300 μM TBHP for 24 hours and oxygen consumption rate determined using the Seahorse XF analyzer.

[5] = 0.6 μM 18 h, then 300 μM TBHP 24 h
[6] = 3 μM 18 h, then 500 μM TBHP 24 h, vs TBHP-treated group
[7] = 3 μM 18 h, then 500 μM TBHP 24 h

SMILES	protection from UV-B radiation damage (Human ARPE-19 cells [1]; 0.6 μM 24 h)	ATP production (Human ARPE-19 cells [2]; [5])	basal respiration (Human ARPE-19 cells [2]; [5])	maximal OCR (Human ARPE-19 cells [2]; [5])	reserve capacity (Human ARPE-19 cells [2]; [5])	protection from oxidative stress-induced cell death (Human ARPE-19 cells [3]; ARPE-19)	protection from TBHP-induced cell death in screen of 65,000 compound Chemical Diversity library (Human ARPE-19 cells [3]; ARPE-19)	ATP production [4, 5]	basal respiration [4, 5]	further results
CCc1cccc(C)c1Nc1c(-c2cc(Br)ccc2O)nc2nc(C)cc(C)n12 [compound 434]	protective	significantly increased	significantly increased	significantly increased	significantly increased	Protective effects	significantly protects	significantly increased	significantly increased	
CCc1cccc(C)c1Nc1c(-c2cc(Br)ccc2O)nc2ncccn12 [compound 414]	protective	significantly increased	significantly increased	significantly increased	significantly increased	Protective effects	significantly protects	significantly increased	significantly increased	cell viability after challenge with TBHP (luminescence); protection from oxidative stress-induced cell death (Human ARPE-19 cells [3]; ARPE-19, compound preincubation, TBHP 24 h (FIG. 8: 0.6 μM, 300 μM TBHP)): protects; also recorded: significantly enhances cell viability; maximal OCR [4, 5]: significantly increased; reserve capacity [4, 5]: significantly increased
Cc1cc(C2CCCCC2)n(O)c(=O)c1 [ciclopirox olamine, 6-cyclohexyl-1-hydroxy-4-methyl-2(1H)-pyridone, ethanolamine salt, reference compound]										protection from UV-B radiation damage (Human ARPE-19 cells [1]; 3 μM 24 h): protects; ATP turnover (Human ARPE-19 cells [2]; [6]): significantly increased; basal respiration (Human ARPE-19 cells [2]; [6]): significantly increased; maximal OCR (Human ARPE-19 cells [2]; [6]): significantly increased; reserve capacity (Human ARPE-19 cells [2]; [6]): significantly increased; cell viability after challenge with TBHP (luminescence); protection from oxidative stress-induced cell death (Human ARPE-19 cells [3]; ARPE-19, ciclopirox olamine preincubation 24 h, then TBHP 24 h (FIG. 1: 0.9 μM, 300 μM TBHP)): protects; also recorded: significantly enhances cell viability; protection from TBHP-induced cell death in screen of 640 FDA-approved drug library (Human ARPE-19 cells [3]; ARPE-19, initial library screening): significantly protects; cell viability, treatment alone compared to no treatment (Human ARPE-19 cells [3]; human RPE cells, ciclopirox olamine alone, no TBHP): significantly enhances cell viability; ATP production [4, 7]: significantly increased; basal respiration [4, 7]: significantly increased; maximal OCR [4, 7]: significantly increased; reserve capacity [4, 7]: significantly increased
